# Legend:
# Test in all cases: relative viability (nuclei count vs DMSO), 5 days (fraction); higher = more cells survive
# NCI-H2228 = tested on: NCI-H2228
# In short: (§1)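 Relative viability was taken as the ratio of nuclei in treated wells to nuclei in vehicle wells. Lung cancer cell lines in 1536-well plates received compounds by pin tool one day after seeding, either one drug alone or a fixed anchor-drug dose plus five library-drug doses (not always all listed) in √10 steps. Nuclei were counted on 4× images after 5 days of treatment, and values are medians of duplicate plates.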
# NCI-H1666 = tested on: NCI-H1666
# In short: as §1
# LU99A = tested on: LU99A
# In short: as §1
# LOU-NH91 = tested on: LOU-NH91
# In short: as §1
# NCI-H1355 = tested on: NCI-H1355
# In short: as §1
# NCI-H1650 = tested on: NCI-H1650
# In short: as §1
# NCI-H460 = tested on: NCI-H460
# In short: as §1
# NCI-H23 = tested on: NCI-H23
# In short: as §1
# BEN = tested on: BEN
# In short: as §1
# SW 1573 = tested on: SW 1573
# In short: as §1
# LC-2-ad = tested on: LC-2-ad
# In short: as §1
smiles,measurement,setting,value
O=C(O)CCCCC(CCSCc1ccccc1)SCc1ccccc1 (stereo not given) [CPI-613] + C[C@@H](Oc1cc(-c2cnn(C3CCNCC3)c2)cnc1N)c1c(Cl)ccc(F)c1Cl [Crizotinib] (partner 1 µM),relative viability,NCI-H2228; first compound 5 µM,0.513
same,relative viability,NCI-H2228; first compound 15.81 µM,0.481
same,relative viability,NCI-H2228; first compound 50 µM,0.52
same,relative viability,NCI-H2228; first compound 158.11 µM,0.203
same,relative viability,NCI-H2228; first compound 500 µM,0.0468
same,relative viability,NCI-H1666; first compound 5 µM,0.863
same,relative viability,NCI-H1666; first compound 15.81 µM,0.995
same,relative viability,NCI-H1666; first compound 50 µM,1.03
same,relative viability,NCI-H1666; first compound 158.11 µM,0.236
same,relative viability,NCI-H1666; first compound 500 µM,0.131
same,relative viability,LU99A; first compound 5 µM,0.618
same,relative viability,LU99A; first compound 15.81 µM,0.546
same,relative viability,LU99A; first compound 50 µM,0.589
same,relative viability,LU99A; first compound 158.11 µM,0.168
same,relative viability,LU99A; first compound 500 µM,0.0638
same,relative viability,LOU-NH91; first compound 5 µM,0.801
same,relative viability,LOU-NH91; first compound 15.81 µM,0.692
same,relative viability,LOU-NH91; first compound 50 µM,0.765
same,relative viability,LOU-NH91; first compound 158.11 µM,0.71
same,relative viability,LOU-NH91; first compound 500 µM,0.722
same,relative viability,NCI-H1355; first compound 5 µM,1.09
same,relative viability,NCI-H1355; first compound 15.81 µM,1.01
same,relative viability,NCI-H1355; first compound 50 µM,1.07
same,relative viability,NCI-H1355; first compound 158.11 µM,0.152
same,relative viability,NCI-H1355; first compound 500 µM,0.136
same,relative viability,NCI-H1650; first compound 5 µM,0.991
same,relative viability,NCI-H1650; first compound 15.81 µM,0.854
same,relative viability,NCI-H1650; first compound 50 µM,0.853
same,relative viability,NCI-H1650; first compound 158.11 µM,0.579
same,relative viability,NCI-H1650; first compound 500 µM,0.0088
same,relative viability,NCI-H460; first compound 5 µM,0.889
same,relative viability,NCI-H460; first compound 15.81 µM,0.892
same,relative viability,NCI-H460; first compound 50 µM,0.728
same,relative viability,NCI-H460; first compound 158.11 µM,0.115
same,relative viability,NCI-H460; first compound 500 µM,0.0085
same,relative viability,NCI-H23; first compound 5 µM,0.542
same,relative viability,NCI-H23; first compound 15.81 µM,0.563
same,relative viability,NCI-H23; first compound 50 µM,0.488
same,relative viability,NCI-H23; first compound 158.11 µM,0.189
same,relative viability,NCI-H23; first compound 500 µM,0.0618
same,relative viability,BEN; first compound 5 µM,0.802
same,relative viability,BEN; first compound 15.81 µM,0.739
same,relative viability,BEN; first compound 50 µM,0.807
same,relative viability,BEN; first compound 158.11 µM,0.743
same,relative viability,BEN; first compound 500 µM,0.769
same,relative viability,SW 1573; first compound 5 µM,0.81
same,relative viability,SW 1573; first compound 15.81 µM,0.749
same,relative viability,SW 1573; first compound 50 µM,0.878
same,relative viability,SW 1573; first compound 158.11 µM,0.819
same,relative viability,SW 1573; first compound 500 µM,0.419
same,relative viability,LC-2-ad; first compound 5 µM,0.444
same,relative viability,LC-2-ad; first compound 15.81 µM,0.432
same,relative viability,LC-2-ad; first compound 50 µM,0.417
same,relative viability,LC-2-ad; first compound 158.11 µM,0.529
same,relative viability,LC-2-ad; first compound 500 µM,0.51

# From the supplement of paper PMC10307832
